Reference: article PMC10652874, “Investigation into the mechanism of action of the antimicrobial peptide epilancin 15X” (Frontiers in Microbiology, 2023)

System: S. carnosus TM300
Test: RNAseq differential gene expression
Assay type: cell-based, Staphylococcus carnosus
Procedure: For the RNAseq experiments, epilancin was added at sub-lethal concentration (0.5x MIC) to S. carnosus TM300 once the cultures reached an OD600 of 0.6. RNA was extracted 40 min after the treatment, using a FastRNA Pro Blue kit (MP Biomedicals). Both treated and parallel untreated samples were collected at the same time. Sequencing was performed at the Carver Biotechnology Center (UIUC). For RNAseq analysis, gene counts were read in to R (v3.1.1; [Team, 2014]), and 14/2441 genes were removed because they had fewer than 32 total counts across the six samples. edgeR’s (v3.6.7) TMM normalization ([Robinson and Oshlack, 2010]) plus negative binomial generalized log-linear model ([McCarthy et al., 2012]) was used to test for differential expression between treated and untreated groups, while accounting for pairing of U and T replicates from three different cultures. p-values were adjusted using the false discovery rate method ([Benjamini and Hochberg, 1995]).

[1] = putative ABC transporter ATP-binding protein
[2] = putative short chain dehydrogenase
[3] = putative transcriptional regulator

Question: With Epilancin 15X as the substance, how does the “fold_change mobA” value (molybdopterin-guanine dinucleotide biosynthesis protein MobA) read?
Answer: 2.6

Question: What about the “fold_change mutT” value (mutT/nudix family protein) of the same substance?
Answer: 5.15

Question: And the fold_change int (phage integrase)?
Answer: 3.38

Question: And the “fold_change pstB” value (phosphate transporter ATP-binding protein)?
Answer: 3.4

Question: What about the “fold_change deoB” value (phosphopentomutase, gene drm) of the same substance?
Answer: 2.75

Question: What about the “fold_change dltD” value (poly D-alanine transfer protein) of the same substance?
Answer: 2.08

Question: What about the “fold_change proP” value (proline/betaine transporter) of the same substance?
Answer: 2.73

Question: What about the “fold_change Sca_0040” value (putative 2-keto-4-pentenoate hydratase) of the same substance?
Answer: 2.87

Question: And the “fold_change Sca_1843” value (putative 3-methyladenine DNA glycosylase)?
Answer: 2.27

Question: What about the “fold_change Sca_0458” value [1] of the same substance?
Answer: 3.16

Question: And the “fold_change Sca_2242” value [1]?
Answer: 2.55

Question: What about the “fold_change Sca_1033” value (putative ABC transporter permease) of the same substance?
Answer: 3.26

Question: And the “fold_change Sca_0699” value (putative ABC-type cobalt transport system ATPase)?
Answer: 2.62

Question: And the “fold_change clpL” value (putative ATP-dependent Clp proteinase chain clpL)?
Answer: 7.83

Question: And the “fold_change Sca_0398” value (putative ATP-dependent helicase)?
Answer: 3.32

Question: And the “fold_change Sca_0642” value (putative ComK family protein)?
Answer: 2.73

Question: And the “fold_change Sca_2395” value (putative CorA-like Mg2+ transporter protein)?
Answer: 2.01

Question: And the “fold_change Sca_1264” value (putative DNA repair protein RadC, gene radC)?
Answer: 12.09

Question: What about the “fold_change sufB” value (putative FeS assembly protein SufB) of the same substance?
Answer: 3.43

Question: And the “fold_change Sca_0476” value (putative HNH family endonuclease, phage associated)?
Answer: 4.35

Question: What about the “fold_change Sca_0479” value (putative IstB-like ATP-binding protein, phage associated) of the same substance?
Answer: 3.51

Question: And the “fold_change sdaB” value (putative L-serine dehydratase subunit beta)?
Answer: 3.71

Question: What about the “fold_change sdaA” value (putative L-serine dehydratase, iron-sulfur-dependent subunit alpha) of the same substance?
Answer: 2.95

Question: What about the “fold_change Sca_0539” value (putative MerR family transcriptional regulator) of the same substance?
Answer: 2.12

Question: What about the “fold_change Sca_0093” value (putative N-acetyltransferase) of the same substance?
Answer: 2.6

Question: What about the “fold_change Sca_1976” value (putative NAD(P)H-flavin oxidoreductase) of the same substance?
Answer: 5.31

Question: And the “fold_change Sca_0831” value (putative NADH-flavin reductase)?
Answer: 4.42

Question: And the “fold_change Sca_1692” value (putative NADP-dependent oxidoreductase)?
Answer: 5.86

Question: What about the “fold_change Sca_1977” value (putative NADPH oxidoreductase) of the same substance?
Answer: 5.07

Question: And the “fold_change Sca_2123” value (putative Na(+)/H(+) antiporter subunit G)?
Answer: 2.16

Question: And the “fold_change Sca_2138” value (putative PTS system, IIBC components)?
Answer: 2.3

Question: What about the “fold_change Sca_2137” value (putative RpiR family transcriptional regulator) of the same substance?
Answer: 2.96

Question: And the “fold_change Sca_2214” value (putative Tat-translocated protein)?
Answer: 3.14

Question: What about the fold_change adc (putative acetoacetate decarboxylase) of the same substance?
Answer: 2.51

Question: What about the “fold_change fadE” value (putative acid-CoA ligase) of the same substance?
Answer: 2.21

Question: And the “fold_change adhC” value (putative alcohol dehydrogenase)?
Answer: 2.53

Question: And the “fold_change Sca_2013” value (putative alcohol dehydrogenase, zinc-containing)?
Answer: 3.05

Question: What about the “fold_change aldH” value (putative aldehyde dehydrogenase) of the same substance?
Answer: 0.49

Question: And the “fold_change Sca_1625” value (putative aldehyde dehydrogenase family protein)?
Answer: 2.65

Question: And the “fold_change Sca_1685” value (putative alkaline shock protein)?
Answer: 4.53

Question: What about the “fold_change Sca_1958” value (putative alpha-acetolactate decarboxylase) of the same substance?
Answer: 4.48

Question: And the “fold_change Sca_0638” value (putative alpha/beta fold family hydrolase)?
Answer: 2.8

Question: What about the “fold_change Sca_0872” value (putative alpha/beta hydrolase superfamily protein) of the same substance?
Answer: 3.04

Question: And the “fold_change Sca_0567” value (putative amidohydrolase)?
Answer: 2.54

Question: What about the “fold_change Sca_0399” value (putative amidophosphoribosyltransferase) of the same substance?
Answer: 3.6

Question: What about the “fold_change Sca_2120” value (putative amino acid transporter) of the same substance?
Answer: 0.49

Question: What about the “fold_change Sca_2151” value (putative antibiotic transport-associated protein) of the same substance?
Answer: 2.04

Question: What about the “fold_change Sca_0467” value (putative antirepressor, phage associated) of the same substance?
Answer: 4.9

Question: What about the “fold_change brnQ” value (putative branched-chain amino acid carrier) of the same substance?
Answer: 0.5

Question: And the “fold_change katE/B” value (putative catalase)?
Answer: 5.7

Question: And the “fold_change Sca_0538” value (putative cation exporting ATPase)?
Answer: 5

Question: What about the “fold_change czrB” value (putative cation-efflux system membrane protein) of the same substance?
Answer: 9.3

Question: And the “fold_change Sca_0867” value (putative cell wall-anchored protein)?
Answer: 2.34

Question: And the “fold_change Sca_0698” value (putative cobalt transport system permease)?
Answer: 2.09

Question: What about the “fold_change copA” value (putative copper-transporting P-type ATPase) of the same substance?
Answer: 2.32

Question: What about the “fold_change Sca_0707” value (putative cytochrome D ubiquinol oxidase subunit I) of the same substance?
Answer: 2.66

Question: And the “fold_change Sca_0708” value (putative cytochrome D ubiquinol oxidase subunit II)?
Answer: 3.72

Question: What about the fold_change dut (putative dUTP pyrophosphatase, phage associated) of the same substance?
Answer: 3.34

Question: And the “fold_change Sca_2298” value (putative dioxygenase)?
Answer: 4.81

Question: And the “fold_change Sca_0871” value (putative effector domain of transcriptional regulator)?
Answer: 3.63

Question: And the “fold_change Sca_0099” value (putative esterase of the alpha-beta hydrolase superfamily)?
Answer: 2.92

Question: And the “fold_change fmdA” value (putative formamidase)?
Answer: 5.66

Question: And the “fold_change Sca_1468” value (putative general stress protein)?
Answer: 2.39

Question: And the “fold_change Sca_0390” value (putative glycerate kinase)?
Answer: 2.11

Question: And the “fold_change Sca_1327” value (putative glycerophosphoryl diester phosphodiesterase)?
Answer: 2.21

Question: What about the “fold_change opuCB” value (putative glycine betaine/carnitine/choline transport system permease) of the same substance?
Answer: 2.02

Question: And the “fold_change Sca_0056” value (putative glycosyl transferase)?
Answer: 2.07

Question: What about the “fold_change Sca_1969” value (putative glyoxylase family protein) of the same substance?
Answer: 4.21

Question: And the “fold_change hrcA” value (putative heat-inducible transcriptional repressor)?
Answer: 3.08

Question: And the “fold_change lrgA” value (putative holin-like protein LrgA)?
Answer: 3.61

Question: What about the “fold_change Sca_0480” value (putative holliday junction resolvase, phage associated) of the same substance?
Answer: 3.23

Question: And the “fold_change Sca_2166” value (putative indole-3-pyruvate decarboxylase)?
Answer: 2.06

Question: What about the “fold_change Sca_0081” value (putative intracellular protease/amidase) of the same substance?
Answer: 5.75

Question: What about the “fold_change Sca_1648” value (putative mannose-6-phosphate isomerase) of the same substance?
Answer: 0.5

Question: And the “fold_change Sca_0366” value (putative membrane-bound sulfatase)?
Answer: 2.62

Question: And the “fold_change adaB” value (putative methylated DNA-protein cysteine methyltransferase)?
Answer: 2.26

Question: And the “fold_change Sca_2129” value (putative monovalent cation/H+ antiporter subunit A)?
Answer: 3.98

Question: And the “fold_change Sca_2128” value (putative monovalent cation/H+ antiporter subunit B)?
Answer: 2.49

Question: What about the “fold_change Sca_2127” value (putative monovalent cation/H+ antiporter subunit C) of the same substance?
Answer: 2.24

Question: What about the “fold_change Sca_2126” value (putative monovalent cation/H+ antiporter subunit D) of the same substance?
Answer: 2.35

Question: And the “fold_change Sca_2125” value (putative monovalent cation/H+ antiporter subunit E)?
Answer: 2.21

Question: And the “fold_change Sca_2124” value (putative monovalent cation/H+ antiporter subunit F)?
Answer: 2.43

Question: And the “fold_change Sca_0449” value (putative nitroreductase)?
Answer: 2.26

Question: And the “fold_change mocA” value (putative oxidoreductase protein)?
Answer: 5.88

Question: And the “fold_change Sca_0684” value (putative peptidase)?
Answer: 2.13

Question: What about the “fold_change Sca_1042” value (putative peptidase (peptidase family M20/M25/M40)) of the same substance?
Answer: 0.49

Question: And the “fold_change Sca_2130” value (putative phage integrase family protein)?
Answer: 8.35

Question: What about the “fold_change pstA” value (putative phosphate ABC transporter permease) of the same substance?
Answer: 3.6

Question: What about the “fold_change Sca_1034” value (putative phosphate transport system substrate-binding protein) of the same substance?
Answer: 3.27

Question: What about the “fold_change Sca_1030” value (putative phosphate uptake regulator protein) of the same substance?
Answer: 3.27

Question: What about the “fold_change Sca_0075” value (putative phospholipase/carboxylesterase) of the same substance?
Answer: 3.41

Question: What about the “fold_change Sca_0147” value (putative purine regulatory protein) of the same substance?
Answer: 2.18

Question: And the fold_change pdp (putative pyrimidine nucleoside phosphorylase)?
Answer: 2.55

Question: And the “fold_change czrA” value (putative repressor protein)?
Answer: 8.56

Question: And the “fold_change vraR” value (putative response regulator)?
Answer: 8.62

Question: And the “fold_change Sca_0400” value (putative ribosome-associated protein)?
Answer: 2.26

Question: What about the “fold_change csdB” value (putative selenocysteine lyase) of the same substance?
Answer: 3.29

Question: What about the “fold_change Sca_1824” value [2] of the same substance?
Answer: 2.61

Question: What about the “fold_change Sca_2218” value [2] of the same substance?
Answer: 3.36

Question: And the “fold_change Sca_2233” value [2]?
Answer: 2.35

Question: What about the “fold_change xerD” value (putative site-specific recombinase XerD) of the same substance?
Answer: 2.53

Question: And the “fold_change Sca_0225” value (putative sugar phosphate isomerase)?
Answer: 3.01

Question: And the “fold_change trxB” value (putative thioredoxine reductase)?
Answer: 2.17

Question: And the “fold_change gltC” value (putative transcription activator of glutamate synthase operon)?
Answer: 2.32

Question: What about the “fold_change Sca_1970” value (putative transcription regulator MarR family) of the same substance?
Answer: 3.81

Question: And the “fold_change Sca_2227” value (putative transcriptional activator TenA)?
Answer: 2.88

Question: And the “fold_change Sca_0070” value [3]?
Answer: 5.38

Question: What about the “fold_change Sca_2381” value [3] of the same substance?
Answer: 3.42

Question: What about the “fold_change Sca_1791” value (putative transmembrane protein) of the same substance?
Answer: 8.45

Question: And the “fold_change Sca_1822” value (putative transport protein)?
Answer: 0.49

Question: And the “fold_change Sca_1423” value (putative two-component response regulator)?
Answer: 0.49

Question: What about the “fold_change norA” value (quinolone resistance protein NorA) of the same substance?
Answer: 2.56

Question: And the “fold_change spoVG” value (regulatory protein SpoVG)?
Answer: 2.18

Question: And the “fold_change rnpA” value (ribonuclease P)?
Answer: 2.02

Question: What about the “fold_change prmA” value (ribosomal protein L11 methyltransferase, gene SCA_1200) of the same substance?
Answer: 2.07

Question: What about the “fold_change Sca_0809” value (secretory antigen SsaA) of the same substance?
Answer: 2.03

Question: What about the “fold_change Sca_0615” value (sodium:alanine symporter family protein) of the same substance?
Answer: 3.14

Question: And the “fold_change Sca_2363” value (succinate-semialdehyde dehydrogenase (NADP+), gene gabD)?
Answer: 2.52

Question: What about the “fold_change trmFO” value (tRNA (uracil-5-)-methyltransferase Gid, gene gid) of the same substance?
Answer: 2.02

Question: What about the fold_change tdk (thymidine kinase) of the same substance?
Answer: 0.49

Question: And the “fold_change perR” value (transcription regulator Fur family)?
Answer: 2.27

Question: And the “fold_change ctsR” value (transcription repressor of class III stress genes)?
Answer: 5.22

Question: What about the “fold_change Sca_0964” value (transport system binding protein) of the same substance?
Answer: 3.98

Question: What about the “fold_change sipB” value (type-1 signal peptidase 1B) of the same substance?
Answer: 2.45

Question: And the “fold_change sipA” value (type-I signal peptidase)?
Answer: 2.68
